From publication PMC5478727, “A Novel Small Molecule GDNF Receptor RET Agonist, BT13, Promotes Neurite Growth from Sensory Neurons in Vitro and Attenuates Experimental Neuropathy in the Rat” (Frontiers in Pharmacology, 2017)

Tests used:
KATP channel = KATP channel (Rattus norvegicus, UniProt Q09429); test: CEREP KATP channel (antagonist radioligand); assay type: binding; details: BT13 1 μM; Cat. No. 0165; average of duplicate; read-out: Percentage of inhibition/potentiation from control
GABA receptor GABAB(1b) = GABA receptor GABAB(1b) (Homo sapiens, UniProt Q9UBS5); test: CEREP GABAB(1b) (h) (antagonist radioligand); assay type: binding; details: read-out: Percentage of inhibition/potentiation from control
neurokinin receptor NK1 = neurokinin receptor NK1 (Homo sapiens, UniProt P25103); test: CEREP NK1 (h) (agonist radioligand); assay type: binding; details: BT13 1 μM; Cat. No. 0100; average of duplicate; read-out: Percentage of inhibition/potentiation from control
[1] = system: rats with spinal nerve ligation (L5/L6); test: Spinal nerve ligation (Chung's) model of experimental neuropathy, von Frey test; details: for increase of ipsilateral paw withdrawal threshold (PWT): von Frey, day 12 post-surgery
[2] = Plasma stability, human plasma; assay type: in vitro ADME; details: read-out: Plasma stability (% remaining after 1 h)
CYP2C19 = target: T1, CYP2C19 (Homo sapiens, UniProt P33261); test: CYP inhibition, fluorescent assay; assay type: biochemical; details: read-out: Inhibition of CYP isoforms (IC50), CYP2C19
T1 construct: Cyathus Exquirere (contract laboratory)

rats = test: Tolerability: weight gain, toxic signs, pathological analysis of major organs; assay type: in vivo, rat
[3] = target: cholecystokinin receptor CK1 (CCKA) (Homo sapiens, UniProt P32238); test: CEREP CK1 (CCKA) (h) (agonist radioligand); assay type: binding; details: BT13 1 μM; Cat. No. 0039; average of duplicate; read-out: Percentage of inhibition/potentiation from control
healthy rats = test: Acute nociception and motor coordination in healthy animals; assay type: in vivo, rat; details: BT13 25 mg/kg s.c.
[4] = Metabolic stability in liver microsomes; assay type: in vitro ADME; details: 0.5 mg/ml rat liver microsomes; read-out: Microsomal stability (% remaining in 30 min)
RET = target: T2, RET (Homo sapiens, UniProt P07949); test: Luciferase reporter-gene assay (PathDetect Elk-1), RET reporter cells; assay type: cell-based; details: RET reporter cell line
T2 construct: full-length human RET (long isoform) in pCR3.1; expressed in transfected cells; host or cells: MG87RET murine fibroblasts

[5] = Pharmacokinetics after intravenous injection; assay type: in vivo; details: rat, 10 mg/kg intravenously
[6] = target: cholecystokinin receptor CCK2 (CCKB) (Homo sapiens, UniProt P32239); test: CEREP CCK2 (CCKB) (h) (agonist radioligand); assay type: binding; details: BT13 1 μM; Cat. No. 0041; average of duplicate; read-out: Percentage of inhibition/potentiation from control
[7] = system: adult rat lumbar DRG sensory neurons; test: Neurite outgrowth from cultured DRG neurons; assay type: cell-based; details: NGF 10 ng/ml, BT13 100 ng/ml
Procedure: Cultured lumbar DRG (L3–L5) neurons were prepared using a published method (O'Mullane et al., [2013]). After plating onto poly-L-ornithine (5 μg/ml)/laminin (5 μg/ml) coated coverslips for 1 h, DRG neurons were cultured for 24–30 h in fresh Neurobasal A/B27. GFLs, BT13, NGF, and vehicle control were added at the start of this period for a 24–30 h treatment, except when preceded by pre-treatment (1 h) with inhibitors (50 μM LY294002; 2 μM SU6656, […]; Biomol Research Laboratories, Plymouth Meeting, PA, USA). DRG neurons were then fixed (4% paraformaldehyde) and processed for immunocytochemistry with 1:200 Mouse anti-β III tubulin/AlexaFluor 594 (Sigma-Aldrich Cat# T8660 RRID:AB_477590) and 1:5,000 rabbit anti-calcitonin gene-related peptide/AlexaFluor 488 (Sigma-Aldrich Cat# C8198 RRID:AB_259091) and DAPI for nuclear staining (0.5 μg/ml, Molecular Probes). Image analysis of multichannel 12 bit Zeiss .ZVI or .TIF files (captured with a Zeiss Imager.M1/MRm camera/Zen software; Carl Zeiss Australia, North Ryde, NSW, Australia) was then performed by a researcher blinded to the experimental condition. Neurite initiation was measured by a single parameter (proportion of neurons with neurites longer than the soma diameter). Neurite elongation was measured by batch processing (HCA-Vision software; CSIRO Mathematical and Information Sciences, North Ryde, NSW, Australia) to obtain four parameters—Root number: number of primary neurites; Maximum length: length of longest neurite; Branch points: number of neurite branch points; and Total length: sum of neurite lengths (Kalous and Keast, [2010]; Kalous et al., [2012]). The number of neurons of each immunocytochemical class counted on each coverslip (technical replicates) was 50 for neurite initiation and 20 for neurite elongation. A minimum of three cultures from different rats (biological replicates) were analyzed for each treatment group.

[8] = target: T3, adrenergic receptor beta 3 (Homo sapiens, UniProt P13945); test: CEREP Beta 3 (non-selective; antagonist radioligand); assay type: binding; details: BT13 1 μM; Cat. No. 3963; average of duplicate; read-out: Percentage of inhibition/potentiation from control
T3 construct: purchased CEREP (contract assay) Cat# 3963

histamine receptor H1 = target: T4, histamine receptor H1 (Homo sapiens, UniProt P35367); test: CEREP H1 (h) (antagonist radioligand); assay type: binding; details: BT13 1 μM; Cat. No. 0870; average of duplicate; read-out: Percentage of inhibition/potentiation from control
T4 construct: purchased CEREP (contract assay) 0870

GFRα3/RET = target: T5, GFRα3/RET (Homo sapiens, UniProt P07949); test: Luciferase reporter-gene assay (PathDetect Elk-1), GFRα3/RET reporter cells; assay type: cell-based; details: GFRα3/RET reporter cell line
T5 construct: full-length human RET (long isoform) in pCR3.1; expressed in transfected cells; host or cells: MG87 murine fibroblasts (MG87RET + PathDetect Elk-1 + GFRα3)

[9] = 0.1–50 μM, read-out: EC50, luciferase activation
[10] = CGRP-positive neurons, vs control

T2 sequence (P07949 29-1114): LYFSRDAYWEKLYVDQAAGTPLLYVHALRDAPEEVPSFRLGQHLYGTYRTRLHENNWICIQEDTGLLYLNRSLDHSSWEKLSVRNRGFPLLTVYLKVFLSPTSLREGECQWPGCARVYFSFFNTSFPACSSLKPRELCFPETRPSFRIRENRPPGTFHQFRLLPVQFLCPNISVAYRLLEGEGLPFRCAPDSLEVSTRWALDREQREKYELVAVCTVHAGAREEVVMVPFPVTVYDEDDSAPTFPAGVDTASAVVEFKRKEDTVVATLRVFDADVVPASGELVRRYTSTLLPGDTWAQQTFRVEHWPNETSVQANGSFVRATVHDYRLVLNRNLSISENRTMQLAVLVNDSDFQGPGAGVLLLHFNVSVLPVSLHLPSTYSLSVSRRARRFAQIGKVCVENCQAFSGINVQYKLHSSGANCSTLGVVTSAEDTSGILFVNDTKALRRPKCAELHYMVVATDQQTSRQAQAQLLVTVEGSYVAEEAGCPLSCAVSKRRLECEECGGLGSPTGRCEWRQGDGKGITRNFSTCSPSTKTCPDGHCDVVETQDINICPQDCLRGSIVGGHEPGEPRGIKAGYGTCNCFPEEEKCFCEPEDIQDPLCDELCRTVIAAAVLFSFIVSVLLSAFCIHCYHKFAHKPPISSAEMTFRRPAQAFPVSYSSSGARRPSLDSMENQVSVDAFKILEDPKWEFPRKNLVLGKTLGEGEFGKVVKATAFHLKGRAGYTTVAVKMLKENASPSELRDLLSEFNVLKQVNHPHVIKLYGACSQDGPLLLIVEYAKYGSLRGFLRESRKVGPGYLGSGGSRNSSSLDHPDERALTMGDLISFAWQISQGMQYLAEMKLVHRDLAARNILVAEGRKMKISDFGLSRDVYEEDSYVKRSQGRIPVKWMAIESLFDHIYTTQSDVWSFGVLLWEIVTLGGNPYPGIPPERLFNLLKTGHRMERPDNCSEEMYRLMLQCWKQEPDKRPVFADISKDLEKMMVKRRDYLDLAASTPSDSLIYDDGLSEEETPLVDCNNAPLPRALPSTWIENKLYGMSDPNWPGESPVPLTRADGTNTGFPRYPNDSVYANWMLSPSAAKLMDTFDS
T5 sequence (P07949 29-1114): as above
T4 sequence (P35367 whole entry): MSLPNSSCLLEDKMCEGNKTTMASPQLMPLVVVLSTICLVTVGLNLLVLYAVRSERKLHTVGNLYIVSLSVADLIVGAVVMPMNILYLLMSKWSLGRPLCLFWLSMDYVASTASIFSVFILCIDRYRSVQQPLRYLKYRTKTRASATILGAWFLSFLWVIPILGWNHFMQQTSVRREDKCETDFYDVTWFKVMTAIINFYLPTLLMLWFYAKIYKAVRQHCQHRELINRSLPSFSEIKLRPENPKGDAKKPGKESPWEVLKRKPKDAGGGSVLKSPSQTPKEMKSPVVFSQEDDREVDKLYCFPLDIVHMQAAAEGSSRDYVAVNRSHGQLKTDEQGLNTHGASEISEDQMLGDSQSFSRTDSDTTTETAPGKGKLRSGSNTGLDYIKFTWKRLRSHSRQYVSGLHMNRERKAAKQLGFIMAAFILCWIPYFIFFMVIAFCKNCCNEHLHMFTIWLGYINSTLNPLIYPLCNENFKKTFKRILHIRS
T3 sequence (P13945 whole entry): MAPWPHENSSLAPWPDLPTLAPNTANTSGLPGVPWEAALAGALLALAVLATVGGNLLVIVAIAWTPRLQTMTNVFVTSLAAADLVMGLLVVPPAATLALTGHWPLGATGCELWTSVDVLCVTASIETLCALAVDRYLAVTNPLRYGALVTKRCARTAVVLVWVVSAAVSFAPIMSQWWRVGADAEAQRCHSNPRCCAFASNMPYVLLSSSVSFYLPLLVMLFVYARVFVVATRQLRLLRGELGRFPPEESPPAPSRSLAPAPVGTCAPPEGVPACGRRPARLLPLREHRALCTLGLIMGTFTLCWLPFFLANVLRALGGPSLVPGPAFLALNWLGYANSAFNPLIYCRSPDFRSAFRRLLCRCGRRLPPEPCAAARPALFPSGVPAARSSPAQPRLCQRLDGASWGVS
cholecystokinin receptor CK1 (CCKA), sequence (P32238 whole entry): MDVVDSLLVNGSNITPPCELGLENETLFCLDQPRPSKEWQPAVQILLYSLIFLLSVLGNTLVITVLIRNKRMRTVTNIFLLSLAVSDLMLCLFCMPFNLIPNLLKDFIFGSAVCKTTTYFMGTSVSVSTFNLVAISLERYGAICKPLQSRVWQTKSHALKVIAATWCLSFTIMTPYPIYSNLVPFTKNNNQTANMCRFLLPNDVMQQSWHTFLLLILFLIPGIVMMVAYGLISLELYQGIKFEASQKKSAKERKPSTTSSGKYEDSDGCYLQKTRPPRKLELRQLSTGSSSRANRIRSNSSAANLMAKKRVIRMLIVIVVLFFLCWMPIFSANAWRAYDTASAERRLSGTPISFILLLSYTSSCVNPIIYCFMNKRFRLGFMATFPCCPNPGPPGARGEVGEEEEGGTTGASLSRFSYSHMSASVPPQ
T1 sequence (P33261 whole entry, canonical isoform): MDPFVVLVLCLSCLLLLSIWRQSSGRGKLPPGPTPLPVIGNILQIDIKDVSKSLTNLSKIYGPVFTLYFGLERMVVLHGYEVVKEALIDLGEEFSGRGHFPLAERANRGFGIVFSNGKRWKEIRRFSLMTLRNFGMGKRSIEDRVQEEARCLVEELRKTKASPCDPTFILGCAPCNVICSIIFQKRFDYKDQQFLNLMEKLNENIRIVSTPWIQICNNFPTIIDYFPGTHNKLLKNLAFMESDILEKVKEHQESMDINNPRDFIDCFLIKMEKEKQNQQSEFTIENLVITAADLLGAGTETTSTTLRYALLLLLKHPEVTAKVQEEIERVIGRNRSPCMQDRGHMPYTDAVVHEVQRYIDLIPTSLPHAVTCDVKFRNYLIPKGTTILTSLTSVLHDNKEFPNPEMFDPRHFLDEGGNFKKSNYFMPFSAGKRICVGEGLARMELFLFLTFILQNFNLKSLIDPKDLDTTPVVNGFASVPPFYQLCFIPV
GABA receptor GABAB(1b), sequence (Q9UBS5 1-844 isoform Q9UBS5-2): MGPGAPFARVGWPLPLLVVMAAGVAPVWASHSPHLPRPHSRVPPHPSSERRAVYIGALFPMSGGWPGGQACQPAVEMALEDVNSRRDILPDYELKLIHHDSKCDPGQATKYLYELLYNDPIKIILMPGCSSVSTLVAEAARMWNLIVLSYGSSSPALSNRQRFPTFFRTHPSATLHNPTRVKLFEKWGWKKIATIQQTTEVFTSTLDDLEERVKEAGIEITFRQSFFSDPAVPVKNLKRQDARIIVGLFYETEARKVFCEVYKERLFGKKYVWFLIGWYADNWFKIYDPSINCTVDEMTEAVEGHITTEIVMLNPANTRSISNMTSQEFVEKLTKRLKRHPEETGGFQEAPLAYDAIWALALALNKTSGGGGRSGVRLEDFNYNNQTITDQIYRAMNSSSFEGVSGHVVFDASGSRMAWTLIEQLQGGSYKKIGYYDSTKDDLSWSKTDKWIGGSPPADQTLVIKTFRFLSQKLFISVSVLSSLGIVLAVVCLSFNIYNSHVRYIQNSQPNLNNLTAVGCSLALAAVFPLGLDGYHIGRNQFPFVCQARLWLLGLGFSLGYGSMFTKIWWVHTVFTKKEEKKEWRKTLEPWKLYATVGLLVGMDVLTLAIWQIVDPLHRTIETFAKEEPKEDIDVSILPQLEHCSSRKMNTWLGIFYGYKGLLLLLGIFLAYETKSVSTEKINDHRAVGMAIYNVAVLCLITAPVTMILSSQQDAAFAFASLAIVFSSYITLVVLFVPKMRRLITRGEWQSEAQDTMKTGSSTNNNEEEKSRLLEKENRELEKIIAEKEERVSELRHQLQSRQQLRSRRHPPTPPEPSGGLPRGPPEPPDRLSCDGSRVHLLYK
neurokinin receptor NK1, sequence (P25103 whole entry): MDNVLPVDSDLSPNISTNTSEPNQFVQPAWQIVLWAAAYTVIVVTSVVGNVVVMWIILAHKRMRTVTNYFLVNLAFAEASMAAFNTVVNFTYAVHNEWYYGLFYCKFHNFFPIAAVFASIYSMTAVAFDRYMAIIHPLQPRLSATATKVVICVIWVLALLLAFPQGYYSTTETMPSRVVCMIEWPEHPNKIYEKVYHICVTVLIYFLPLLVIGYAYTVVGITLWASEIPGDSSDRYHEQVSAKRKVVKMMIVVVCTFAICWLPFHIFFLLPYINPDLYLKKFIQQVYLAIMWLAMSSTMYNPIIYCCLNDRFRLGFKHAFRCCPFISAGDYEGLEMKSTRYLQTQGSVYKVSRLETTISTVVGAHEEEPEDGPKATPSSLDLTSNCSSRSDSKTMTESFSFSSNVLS
cholecystokinin receptor CCK2 (CCKB), sequence (P32239 whole entry): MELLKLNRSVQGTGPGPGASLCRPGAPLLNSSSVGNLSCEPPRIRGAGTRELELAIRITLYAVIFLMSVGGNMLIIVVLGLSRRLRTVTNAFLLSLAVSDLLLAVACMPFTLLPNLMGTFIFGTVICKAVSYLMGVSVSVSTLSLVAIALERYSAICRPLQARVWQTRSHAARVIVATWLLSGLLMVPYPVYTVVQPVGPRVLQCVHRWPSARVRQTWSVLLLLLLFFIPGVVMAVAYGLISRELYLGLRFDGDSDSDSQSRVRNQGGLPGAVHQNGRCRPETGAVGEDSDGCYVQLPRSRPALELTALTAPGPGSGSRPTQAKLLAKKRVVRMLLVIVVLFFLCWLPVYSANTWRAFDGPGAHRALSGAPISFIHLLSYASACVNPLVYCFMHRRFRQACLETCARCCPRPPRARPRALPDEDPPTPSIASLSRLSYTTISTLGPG

SMILES: CCN(CC)S(=O)(=O)c1ccc(OC)c(N2CCN(C(=O)c3ccc(F)cc3C(F)(F)F)CC2)c1 [BT13]
- inhibition at 1 µM (KATP channel): 8%
- inhibition at 1 µM (GABA receptor GABAB(1b)): -2%
- inhibition at 1 µM (neurokinin receptor NK1): -19%
- increase of ipsilateral paw withdrawal threshold (PWT) ([1]; BT13 20 mg/kg s.c. on days 1, 3, 5, 8, 10, 12): 2.5 times
- increase of ipsilateral paw withdrawal threshold (PWT) ([1]; BT13 25 mg/kg s.c. on days 1, 3, 5, 8, 10, 12): 2.9 times
- effect on contralateral PWTs ([1]; repeated post-surgical s.c. administration of BT13): did not influence
- remaining at 1 h [2]: 97 ± 0.1%
- IC50 (CYP2C19): > 100 µM
- significant histopathological changes in major organs (rats; after completion of behavioral experiments): not detected
- acute toxic effects, signs of pain or discomfort (rats; experimental animals treated with BT13): No acute toxic effects, signs of pain or obvious discomfort
- tumor formation in the tissues of rats (rats; rat, in vivo): no tumor formation
- inhibition at 1 µM [3]: 3%
- baseline sensitivity to mechanical stimuli (paw pressure test) (healthy rats): no significant effect
- baseline sensitivity to thermal stimuli (acetone test) (healthy rats): no significant effect
- baseline sensitivity to thermal stimuli (hot plate) (healthy rats): no significant effect
- baseline sensitivity to thermal stimuli (tail flick) (healthy rats): no significant effect
- motor performance (rotarod test) (healthy rats): no significant effect
- remaining at 0.5 h [4]: 2.8 ± 0.1%
- efficacy, fold induction of luciferase above baseline (RET): 7.4 fold
- EC50 (RET; [9]): 20.7 µM
- Kp ([5]; male, Sprague Dawley, iv, plasma and brain samples 1, 3 and 6 h, read-out: BBB penetration): 0.55 to 0.68
- clearance ([5]; male, Sprague Dawley, plasma, iv): 78.3 mL/min
- Vd ([5]; male, Sprague Dawley, plasma, iv, one-compartment model): 23.6 L/kg
- half-life ([5]; male, Sprague Dawley, plasma, iv, one-compartment model, read-out: t1/2 (half-life in the blood) (converted)): 3.47 h
- BBB penetration ([5]; plasma and brain samples 1, 3 and 6 h, 10 mg/kg): 55–68%
- inhibition at 1 µM [6]: 1%
- neurite initiation or extension ([7]; CGRP-negative neurons, ARTN 30 ng/ml): no effect
- neurite initiation ([7]; CGRP-positive neurons, ARTN 30 ng/ml, overnight): no effect
- neurite elongation, branch points, mean difference [7, 10]: 22 ± 5
- neurite elongation, maximum length, mean difference [7, 10]: 91 ± 13 μm
- neurite elongation, total length, mean difference [7, 10]: 797 ± 207 μm
- proportion of DRG neurons that expressed CGRP in culture ([7]; ARTN 30 ng/ml): did not alter
- inhibition at 1 µM [8]: -5%
- inhibition at 1 µM (histamine receptor H1): 5%
- efficacy, fold induction of luciferase above baseline (GFRα3/RET): 8.9 fold
- EC50 (GFRα3/RET; [9]): 20.5 µM
